In paper PMC12056667 (Chemical Science, 2025):

What was measured:
Tet(X5) = experiment: Fluorescence polarisation binding assay of probes with purified TDase; settings: 25 nM probe, 5 mM MgCl2, 1 μM FAD, 100 mM Tris pH 7.0, 0.01% Triton X-100
Experimental: (§1) NADPH was not included to prevent turnover of the probe to the hydroxylated product, which would likely have a lower binding affinity than the initial probes. Screens were conducted in pH 7.0 buffer with addition of 0.01% Triton-X100 detergent in non-binding plates to minimise adsorption to the plate wells.[45]
(§2) Aliquots of TDases were thawed and serially diluted with the assay buffer (100 mM Tris, pH 7.0 with 0.01% Triton X-100) in a V-bottom 96-well plate (Greiner Bio-One). 12.5 μL of each concentration of enzyme was transferred in quadruplicate to a 384-well black, non-binding microtiter plate (Greiner Bio-One). Aliquots of 2 mM stock of fluorescent probes 5 and 6 in DMSO were thawed and diluted to 50 nM in the assay buffer with 2 μM FAD and 10 mM MgCl2. 12.5 μL of this solution was added to wells containing enzyme. A negative control of 12.5 μL of the probe solution with 12.5 μL of the assay buffer was included on each plate. The plate was briefly centrifuged (1000 rpm), then incubated at ambient temperature for 30 min before measuring the FP response using a PHERAstar FS microplate reader (BMG Labtech) equipped with an FP optic module (excitation = 540 ± 20 nm, Emission = 590 ± 20 nm, 200 flashes per well). ΔmP values were calculated by subtracting the average mP of the negative controls from the mP measured for each well. To calculate Kd values, the derived ΔmP values were plotted as a function of enzyme concentration and a one-site specific binding model was applied (GraphPad Prism 9.4.1).

Tet(X2) = target: T1, Tet(X2) (Bacteroides thetaiotaomicron, UniProt Q93L51); experiment: as above
T1 construct: For Tet(X2), the full-length protein was prepared rather that the Δ1–10 mutant used previously for crystallographic studies; made in house; host or cells: E. coli BL21(DE3)
Experimental: as §1, §2

Tet(X7) = experiment: as above; settings: 25 nM probe, 5 mM MgCl2, 1 μM FAD, 100 mM Tris pH 7.0, 0.01% Triton X-100
Experimental: as §1, §2

Tet(50) = target: T2, Tet(50) (Unknown prokaryotic organism, UniProt A0A059WYP6); experiment: as above
T2 construct: made in house; host or cells: E. coli BL21(DE3)
Experimental: as §1, §2

Tet(X4) [1] = target: T3, Tet(X4) (Escherichia coli, UniProt A0A3T0V9Y5); experiment: as above; settings: 25 nM probe, 5 mM MgCl2, 1 μM FAD, 100 mM Tris pH 7.0, 0.01% Triton X-100; read-out: Kd
Experimental: as §1
as §2, with “Aliquots of 2 mM stock of fluorescent probes 5 and 6 in DMSO were thawed and diluted to 50 nM in the assay buffer with 2 μM FAD and 10 mM MgCl2.” left out

Tet(X4) [2] = target: T3, Tet(X4); experiment: FP competitive displacement of probe 6; type: binding; settings: for IC50: IC50app, FP assay, 25 nM 6, 40 nM Tet(X4), 5 mM MgCl2, 1 μM FAD, 100 mM Tris pH 7.0, 0.01% Triton X-100; for displacement of probe 6 / competitive binding (in words): up to a maximum concentration of 100 μM
Procedure, shortened: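 FP displacement of probe 6 (added as 50 nM solution) from Tet(X4) (2× mix: 80 nM enzyme, 2 μM FAD, 10 mM MgCl2), 30 min at ambient temperature. Dose-response used 3-fold, 10-point DMSO series (top 5 or 0.5 mM stock). IC50^app came from a Hill fit of control-normalised response. Library screening used 10 μM compound, 0.1% DMSO, […].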

Tet(X4) [3] = target: T3, Tet(X4); experiment: biochemical; settings: for IC50: 20 μM tigecycline, 50 nM Tet(X4), 100 μM NADPH, 5 mM MgCl2, 1 μM FAD, 100 mM TAPS pH 8.5, read-out: IC50, UPLC assay; for inhibition in the UPLC assay (in words): AZT up to 100 μM
Experimental: We then tested the binding of reported type 1 TDase inhibitors to Tet(X4) (Fig. 3f, ESI Fig. S17 ^†).[33,38,39] […] We also developed a complementary endpoint activity assay where the turnover of tigecycline by Tet(X4) in a 96-well plate was quenched by addition of 1%v/v formic acid and analysed chromatographically. The peak integrals of tigecycline and its hydroxylated degradation product at 254 nm following UPLC analysis were measured to determine turnover (Fig. 5a).
[…] A 3-fold, 10-point dilution series of the substrates and inhibitors was made in DMSO with a top concentration of 10 mM, unless otherwise stated, and transferred to the enzyme solution using a CyBi-Well liquid-handling robot (CyBio), 1 μL per well. On each plate, a column of no enzyme negative controls and no inhibitor (DMSO only) positive controls were included. The plate was incubated at 30 °C for 15 min. A solution containing 100 mM TAPS (pH 8.5), 40 μM tigecycline and 200 μM NADPH was then dispensed, with 49 μL per well. The plate was incubated at 30 °C for 20 min at 600 rpm. 10 μL of 10%v/v formic acid solution was then dispensed into all wells. Samples were analysed using an ACQUITY H-Class PLUS UPLC instrument (Waters) equipped with a pre-equilibrated ACQUITY BEH C18 column ([…], […], Waters) using a gradient of 1–50%v/v acetonitrile with 0.1%v/v formic acid in water with 0.1%v/v formic acid over 1.83 minutes at a flow rate of 0.5 mL min^−1. Instrument control and data processing were performed using MassLynx V4.1 software. The peaks representing tigecycline and 11a-hydroxy-tigecycline were integrated, used to calculate % conversion and then normalised between positive and negative controls. The normalised % response was plotted as a function of log10[Inhibitor], and the IC50 determined as described above.

Tet(X4) [4] = target: T3, Tet(X4); experiment: Absorbance activity assay (tigecycline turnover, A400); type: biochemical; settings: for inhibition in the absorbance assay (in words): AZT up to 1 mM
Source text: We then tested the binding of reported type 1 TDase inhibitors to Tet(X4) (Fig. 3f, ESI Fig. S17 ^†).[33,38,39] […] These compounds gave similar apparent IC50^app values, in accord with trends in IC50 measurements performed by Markley et al.[33] […] We also developed a complementary endpoint activity assay where the turnover of tigecycline by Tet(X4) in a 96-well plate was quenched by addition of 1%v/v formic acid and analysed chromatographically. The peak integrals of tigecycline and its hydroxylated degradation product at 254 nm following UPLC analysis were measured to determine turnover (Fig. 5a). As this method separates components by chromatography, it enables IC50 measurements independent of potential interference from UV-active inhibitors (Fig. 5b). […] The apparent synergy of AZT with tetracyclines against whole cells expressing Tet(X4)[40] is therefore interesting and may derive from the proposed ability of AZT to interfere with DNA synthesis in bacteria,[40,53] or other unidentified mechanisms. […] Note, however, that plumbagin and 2-MNQ are naphthoquinones, which are well-characterised redox-active pan-assay interference (PAINS) moieties.[54]
233 Absorbance Activity Assays
234 A solution containing 100 mM TAPS (pH 8.5), 2 µM FAD, 10 mM MgCl2 and 100 nM Tet(X4) was
235 dispensed into a 384 well µClear plate (Greiner Bio-One), 25 µL per well, using a microplate reagent
236 dispenser. A 3-fold, 10-point dilution series of the substrates and inhibitors was made in DMSO with
237 the highest concentration of 50 mM, unless otherwise stated, and transferred to the enzyme solution in
238 technical quadruplicate using a CyBi-Well (CyBio) liquid-handling robot (1 µL per well). On each plate,
239 a column of no enzyme negative controls and no inhibitor (DMSO only) positive controls were
240 included. The plate was briefly centrifuged (1000 rpm), then incubated (ambient temperature,15 min).
241 A solution containing 100 mM TAPS (pH 8.5), 50 µM tigecycline and 500 µM NADPH was then
242 dispensed, with 25 µL per well. The plate was briefly centrifuged (1000 rpm), then transferred to a
243 CLARIOstar Plus Microplate reader. The absorbance was monitored at wavelength […] over the
244 course of 2 hours (23 flashes / cycle, 180 s cycle time, 41 data points, 25 ° C). The initial rate was
245 calculated by measuring the rate of change of A400 during the initial linear regime. Initial rates were
246 normalised between positive and negative controls. The normalised % response was plotted as a
247 function of log10([Inhibitor]) in molar units, and the IC50 was determined as above. […]

Row | SMILES | Kd (Tet(X5)) [µM] | Kd (Tet(X2)) [µM] | Kd (Tet(X7)) [µM] | Kd (Tet(50); 25 nM probe, 5 mM MgCl2, 1 μM FAD, 100 mM Tris pH 7.0, 0.01% Triton X-100) [µM] | binding to Tet(50) (in words) (Tet(50); up to a concentration of 5 μM of enzyme) | Kd (Tet(X4) [1]) [µM] | IC50 (Tet(X4) [2]) [µM] | displacement of probe 6 / competitive binding (in words) (Tet(X4) [2]) | IC50 (Tet(X4) [3]) [µM] | inhibition in the UPLC assay (in words) (Tet(X4) [3]) | IC50 (Tet(X4) [4]) [µM] | inhibition in the absorbance assay (in words) (Tet(X4) [4]) | IC50 (Tet(X4) [4]; 25 μM tigecycline, 50 nM Tet(X4), 250 μM NADPH, 5 mM MgCl2, 1 μM FAD, 100 mM TAPS pH 8.5, read-out: IC50, Absorbance assay) [µM]
1 | CN(C)c1ccc2c(-c3ccc(C(=O)NCC(=O)Nc4cc(N(C)C)c5c(c4O)C(=O)C4=C(O)[C@]6(O)C(=O)C(C(N)=O)=C(O)[C@H](N(C)C)[C@@H]6C[C@@H]4C5)cc3C(=O)[O-])c3ccc(=[N+](C)C)cc-3oc2c1 [Probe 5] | 0.0299 ± 0.0027 | 0.0669 ± 0.0103 | 0.126 ± 0.015 | > 5 | no detectable binding | 0.0465 ± 0.0041 | – | – | – | – | – | – | –
2 | CC1=CC(=O)c2c(O)cccc2C1=O [Plumbagin] | – | – | – | – | – | – | > 100 | minimal competitive binding | 37.2 ± 8.2 | moderate | 49.1 ± 4.9 | moderate | –
3 | COC1=CC(=O)c2ccccc2C1=O [2-Methoxy-1,4-naphthoquinone] | – | – | – | – | – | – | > 100 | minimal competitive binding | > 100 | weak | – | weak | 421 ± 50
